This note sets out measurements from patent US8212038B2, “Methods and compositions for controlling ectoparasites” (HatchTech Pty Ltd., priority 2003, dated 2012).

Entries after “also recorded” stand apart in the source; their conditions may differ. Square brackets hold non-standard residues; d marks the D form. Peptide text beside a SMILES is read from it. * marks the point of attachment. Sta = CC(C)C[C@H](N)[C@@H](O)CC(=O)O; Isovaleryl = CC(C)CC(=O)*

Assay [1] concerns proteases in the egg shell washings (ESW) of lice eggs. In words: Gelatine substrate SDS-PAGE of egg shell washings treated with protease inhibitors. The following applies: 37° C., 3 hrs. It is filed as biochemical, Pediculus humanus humanus. On the procedure:
Within 12 hours of hatching 50 body lice eggs (Pediculus humanus humanus) were removed from the hair and placed in a 1 ml eppendorf tube. 20 μL of distilled water was added to the unhatched eggs and the preparation incubated for 30 minutes at 32° C. The 20 μL was recovered, freeze dried and stored at −70° C. A number of other samples were also collected as described. Hair samples from which unhatched lice eggs had been removed were also collected and incubated as described above. In addition, a sample of unhatched eggs and a sample of hair from which lice eggs had been removed were collected 7 days post laying (within 24 hrs of egg hatching). Both samples were washed in 10 mls of a 1% solution of sodium hypochlorite for 1 minute followed by a 5×1 minute washes in 25 mls in distilled water to remove the hypochlorite. These samples were then incubated in […] of distilled water as described above. In addition, a group of 25 lice eggs that were within 24 hours of hatching, were pretreated with 1% sodium hypochlorite, washed as described above and left to hatch. Within 1-2 hours after hatching the empty egg shells were incubated in 20 μL of distilled water as described above, the washings collected from the hatched egg shells and stored at −70° C. All of the extract samples were then freeze-dried overnight. The freeze-dried samples were then resuspended in […] of non-reducing SDS sample buffer, centrifuged at 10,000 g for 2 minutes and the entire 15 μL loaded on to 10% gelatine substrate SDS-PAGE gels. Gels were run at 4° C. for 10 minutes at 10 mA followed by a further 25 minutes at 15 mA per gel. They were then incubated for 2×20 minutes in a 2.5% Triton-X 100 solution followed by a three hour incubation in 0.1M Tris/HCl containing 1 mM CaCl2 pH 8.0. Activity was detected as clear areas on the gel the result of protease activity degrading the gelatine within the gel.
10% SDS-PAGE gelatine substrate gels were loaded with freeze dried egg shell washings from 100 lice eggs that had been resuspended in 50 μl of non-reducing sample buffer with samples run at 10 μl per lane. Gels were run at 4° C. for 10 minutes at 10 mA per gel followed by a further 25 minutes at 15 mA per gel. Gels were then cut into strips and each strip incubated for 2×20 minutes in a 2.5% Triton-X 100 solution containing a specific inhibitor. The inhibitors used were the serine protease inhibitor PMSF (5 mM), the metalloprotease inhibitor 1,10-phenanthroline (10 mM), the aspartic protease Pepstatin (5 μM) and the cysteine inhibitor E-64 (10 μM). The gel strips were then incubated in 0.1M Tris/HCl containing 1 mM CaCl2 pH 8 containing the different protease inhibitors for 3 hrs at 37° C., before being stained in Coomassie blue and destained as previously described.

Assay [2] relates to Plutella xylostella eggs (Waite strain). In words: Egg hatch of Plutella xylostella after dipping in inhibitor.
Experimental: The egg masses were then placed in a humid box at 25 degrees until egg hatch. Control eggs were exposed to absolute methanol as described above. At day 6 post laying the eggs were assessed from the different treatments and the percentage of egg hatch determined relative to the control as shown in Table 9.
Batches of Plutella eggs that were laid on either fine cloth or parafilm were dipped in a specific inhibitor solution for between 2-10 seconds, the excess solution was drained by blotting with dry tissue paper. The egg masses were then placed in a humid box at 25 degrees until egg hatch. Control eggs were exposed to absolute methanol as described above or not treated.
The egg masses were then placed in a humid box at 25 degrees until egg hatch. Control eggs were exposed to absolute ethanol as described above. On day 6 post laying the eggs were assessed from the different treatments and the percentage of egg hatch determined relative to the control.
In assay [3] the test system is B. ovis eggs. In words: Egg hatching in Bovicola ovis. It is filed as in vivo. The following applies: 10 mM. How it is done: B. ovis eggs were collected from the wool of sheep that were infested with this parasite. The eggs were collected using forceps and with the aid of a dissecting microscope and placed in 24 well tissue culture plates in duplicate lots of 10 eggs per replicate. The eggs were then exposed to either methanol alone (control) or the test compounds for either 10 minutes or 1 minute before being removed from the wells and placed into individual glass vials containing a diet at the base of the tube. The tubes were placed in plastic containers containing a salt solution (to keep humidity constant at 68%) and the containers maintained at a temperature 32° C. The eggs were monitored for hatching over the following 12 days and % hatch inhibition determined in comparison to the controls.

Assay [4] concerns lice eggs. In words: Time course in vitro lice egg hatching assay. Format: in vivo, Pediculus humanus humanus.
Assay [5] has as its system Plutella xylostella eggs (Waite strain). In words: Reversal of ovicidal effect by FeSO4 on Plutella xylostella eggs. It is filed as in vivo. On the procedure: (§1) Within 24 hours of collection the following experimental design was chosen. Batches of eggs were exposed to 10 mM 6,69-dimethyl-2,29-dipyridyl for 2 seconds while additional batches of eggs were exposed to the solvent only (Methanol) for 2 seconds. All batches of eggs were allowed to air dry for 20 minutes at room temperature. The eggs were then given a 2 second exposure to FeSO4 at either 10, 5 or 1 mM, air dried and put in the incubator at 24° C. and allowed to hatch over the next 6 days. In addition, a positive control of 10 mM 6,69-dimethyl-2,29-dipyridyl was set up in which eggs were exposed to this compound for 2 seconds, air dried and placed in the incubator.
as §1, with “10 mM 5,59-dimethyl-2,29-dipyridyl for 2” for “10 mM 6,69-dimethyl-2,29-dipyridyl for 2”, “FeSO4 at 10, 5” for “FeSO4 at either 10, 5”, “put in an incubator at” for “put in the incubator at”, “of 10 mM, 5,59-dimethyl-2,29-dipyridyl was set” for “of 10 mM 6,69-dimethyl-2,29-dipyridyl was set”

For assay [6], the system named is Helicoverpa armigera eggs (Tatura×Toowoomba strains). In words: Egg hatch of Helicoverpa armigera after exposure to inhibitor. As to conditions: for % Inhibition of egg hatch relative to control / Number hatched / Number unhatched / % Inhibition of egg hatch relative to the control: day 6 post laying.
Experimental: Several hundred Helicoverpa armigera eggs (Tatura×Toowoomba strains) were collected, that had been laid on fine mesh cloth over a 24 hour period.
Batches of Helicoverpa eggs were exposed to a specific inhibitor solution for between 2-10 seconds the excess solution drained by blotting with dry tissue paper. The egg masses were then placed in a humid box at 25 degrees until egg hatch. Control eggs were exposed to absolute methanol as described above.
Where [7] appears, read: 10 and 1 mM, listed as 6,6′ dimethyl-2,2′ dipyridyl.
The mark [8] stands for this setting: Example 12, 0.001 mM, day 6 post laying.
The mark [9] stands for this setting: Example 12, 0.01 mM, day 6 post laying.
Where [10] appears, read: Example 12, 0.1 mM, day 6 post laying.
Setting [11] is: Example 12, 1 mM, day 6 post laying.
The mark [12] stands for this setting: Example 12, 10 mM, day 6 post laying.
Where [13] appears, read: Example 13, eggs laid on cloth, 0.01 mM.
Setting [14] is: Example 13, eggs laid on cloth, 0.1 mM.
Setting [15] is: Example 13, eggs laid on cloth, 1 mM.
Setting [16] is: Example 13, eggs laid on cloth, 10 mM.
Where [17] appears, read: Example 13, eggs laid on parafilm, 0.01 mM.
The mark [18] stands for this setting: Example 13, eggs laid on parafilm, 0.1 mM.
Where [19] appears, read: Example 13, eggs laid on parafilm, 1 mM.
Setting [20] is: Example 13, eggs laid on parafilm, 10 mM.
[21] abbreviates: per replicate, […], concentration not given.
[22] abbreviates: 10 mM followed by 2 second exposure to 1 mM FeSO4.
[23] abbreviates: 10 mM followed by 2 second exposure to 5 mM FeSO4.
The mark [24] stands for this setting: 10 mM followed by 2 second exposure to 10 mM FeSO4.
The mark [25] stands for this setting: 10 mM followed by 2 second exposure to MEOH.
Setting [26] is: 10 mM, 2 seconds, (+ve) control, no second exposure.

With `CC(C)C[C@H](NC(=O)[C@H]1O[C@@H]1C(=O)O)C(=O)NCCCCN=C(N)N` [E64], the “protease activity of ESW on gelatine SDS-PAGE after inhibitor treatment” value (shortened to “protease activity … after inhibitor treatment”) in assay [1] (10 μM inhibitor) is listed as “No reduction in protease activity”.
As for `CC(C)CC(=O)N[C@H](C(=O)N[C@H](C(=O)N[C@@H](CC(C)C)[C@@H](O)CC(=O)N[C@@H](C)C(=O)N[C@@H](CC(C)C)[C@@H](O)CC(=O)O)C(C)C)C(C)C` [pepstatin] (Isovaleryl-VV[Sta]A[Sta]-OH), the “protease activity … after inhibitor treatment” value in assay [1] (5 μM inhibitor, data not shown) is on record as “did not show any reduction in protease activity; also recorded: No reduction in protease activity”.
On to `O=S(=O)(F)Cc1ccccc1` [PMSF], for which the “protease activity … after inhibitor treatment” value in assay [1] (5 mM inhibitor) is “No reduction in protease activity”.
Usually % Inhibition stands for the relative decrease from the control value, in per cent. With `Cc1cccc(-c2cccc(C)n2)n1` [6,6′-dimethyl-2,2′-dipyridyl], the “inhibition of egg hatching in Plutella xylostella (in words)” value in assay [2] (0.1 and 0.01 mM) is reported as “no observable effects on egg hatching”; in assay [2] (setting [7]), “strong ovicidal effects”; in assay [2] (10 and 1 mM, listed as 6,6′-dimethyl-2,2′ dipyridyl), “effective at inhibiting egg hatching”. Moreover, the “% Inhibition of egg hatch relative to control” value in assay [2] (setting [8]) was 0%; in assay [2] (setting [9]), 0%; in assay [2] (setting [10]), 0%; in assay [2] (setting [11]), 100%; in assay [2] (setting [12]), 100%; in assay [6] (Example 14, 0.001 mM) it was 0%. The “% Inhibition of egg hatch relative to control” value in assay [6] (Example 14, 0.01 mM) was 0%; in assay [6] (Example 14, 0.1 mM), 0%; in assay [6] (Example 14, 1 mM), 97%; in assay [6] (Example 14, 10 mM), 94%. The Number hatched in assay [2] (setting [8]) was 11; in assay [2] (setting [9]), 13; in assay [2] (setting [10]) it was 23; in assay [2] (setting [11]), 0; in assay [2] (setting [12]), 0; in assay [2] (setting [13]), 23. The Number hatched in assay [2] (setting [14]) is listed as 49; in assay [2] (setting [15]) it was 0; in assay [2] (setting [16]), 0; in assay [2] (setting [17]), 92; in assay [2] (setting [18]), 65; in assay [2] (setting [19]), 0. Further, the Number hatched in assay [2] (setting [20]) stood at 0; in assay [5] (setting [22]) it was 33; in assay [5] (setting [23]), 25; in assay [5] (setting [24]) it was 12; in assay [5] (setting [25]), 3; in assay [5] (setting [26]) it was 0. The Number hatched in assay [6] (Example 14, 1 mM) was 4; in assay [6] (Example 14, 10 mM), 7; in assay [6] (Example 15, 0.1 mM), 70; in assay [6] (Example 15, 1 mM), 2; in assay [6] (Example 15, 10 mM), 3. Moreover, the Number unhatched in assay [2] (setting [8]) was 6; in assay [2] (setting [9]), 7; in assay [2] (setting [10]) it was 29; in assay [2] (setting [11]), 26; in assay [2] (setting [12]), 79; in assay [2] (setting [13]), 4. The Number unhatched was 49 in assay [2] (setting [14]); 23 in assay [2] (setting [15]); 53 in assay [2] (setting [16]); 4 in assay [2] (setting [17]); 70 in assay [2] (setting [18]); 63 in assay [2] (setting [19]). Besides, the Number unhatched in assay [5] (setting [22]) was 1; in assay [5] (setting [23]), 0; in assay [5] (setting [24]) it was 19; in assay [5] (setting [25]), 28; in assay [5] (setting [26]), 44; in assay [6] (Example 14, 1 mM), 140. Moreover, the Number unhatched stood at 98 in assay [6] (Example 14, 10 mM); 0 in assay [6] (Example 15, 0.1 mM); 61 in assay [6] (Example 15, 1 mM); 48 in assay [6] (Example 15, 10 mM). Also, the “% Inhibition of egg hatch relative to controls” value in assay [2] (setting [13]) is 12%; in assay [2] (setting [14]) it was 0%; in assay [2] (setting [15]), 100%; in assay [2] (setting [16]) it was 100%; in assay [2] (setting [17]) it was 0%; in assay [2] (setting [18]) it was 7%. Moreover, the “% Inhibition of egg hatch relative to controls” value in assay [2] (setting [19]) and in assay [2] (setting [20]) was 100% each time. In addition, the “inhibition of egg hatching (in words)” value in assay [3] (10 or 1 minute exposure) is “completely inhibited”. In addition, the “% Inhibition” value in assay [3] (1 minute exposure) is reported as 100%; in assay [3] (10 minute exposure), 100%; in assay [5] (setting [22]) it was 3%; in assay [5] (setting [23]), 0%; in assay [5] (setting [24]) it was 38%; in assay [5] (setting [25]), 90%. In addition, in assay [5] (setting [26]), the “% Inhibition” value came to 100%. The “inhibition of lice egg hatching (in words)” value in assay [4] (in vivo) was “completely inhibited”. In addition, the “H (number of eggs successfully hatched)” value in assay [4] (setting [21]) is 0. Further, the “Ph (number of eggs partly hatched)” value in assay [4] (setting [21]) was 0. In assay [5] (10 mM inhibitor, then FeSO4 10, 5 or 1 mM), the “effect of added Fe (FeSO4) on the ovicidal effect (in words)” value is “able to reverse the effects”. The “inhibition of egg hatching of Helicoverpa armigera (in words)” value in assay [6] (0.1 mM) is “no inhibition of egg hatching”; in assay [6] (10 and 1 mM) it was “significantly inhibit the egg hatching”; in assay [6] (setting [7]), “significantly inhibit egg hatching”; in assay [6] (concentrations below 1 mM), “No inhibition”. Also, the “% Inhibition of egg hatch relative to the control” value is recorded as 0% in assay [6] (Example 15, 0.1 mM); 97% in assay [6] (Example 15, 1 mM); 94% in assay [6] (Example 15, 10 mM).
